# Earlier results as cited in patent publication US12274727B2 (Bazelet Health Systems, Inc., priority 2021, dated 2025).
# Columns and labels:
# [1] = not given; remark: listed apart in the source
# [2] = with piperine, chronic or single dose regimen
# [3] = not given; remark: listed apart in the source
# [4] = room temperature
# [5] = patch testing in Europe
# [6] = not given; remark: listed apart in the source
# [7] = after one single oral administration
smiles,measurement,setting,value
"C=C(C)[C@@H]1CCC(C)=C[C@H]1c1c(O)cc(CCCCC)cc1O [CBD, Cannabidiol]",sublingually absorbed,emulsified (micronized) CBD products,up to 35%
same,oral bioavailability,"oral, humans",approximately 6%
same,bioavailability from smoked product,smoked,around 31%
same,sublingual bioavailability,sublingual,13-19%
same,transdermal absorption,transdermal,about 10%
same,"formation of THC, yield","[1]; artificial gastric fluid without pepsin, first study",2.9%
same,conversion into THC (both 8 and 9 isomers),"[1]; simulated gastric fluid, another study",about 49%
same,increase in oral bioavailability compared to control group without piperine,[2],~2.5 fold
same,"degradation by light, average values",[3]; after 30 days,up to 15%
same,"maximum degradation, average values",[3]; stored at 37° C. for 30 days,up to 20%
"CC(C)=CCC1C(=O)C(C(=O)CC(C)C)=C(O)C(O)(CC=C(C)C)C1=O (stereo not drawn) [Humulone, humulone]",time to degradation,[4],about 12 weeks
C=CC(C)(O)CCC=C(C)C (stereo not drawn) [Linalool],people found to be allergic to the oxidized form,[5],7%
C=C(C)[C@@H]1CCC(C)=C[C@H]1c1c(O)cc(CCCCC)cc1O [pharmaceutical CBD],patients reporting similar AEs,[6]; another trial,86%
same,patients with AEs reported,[6]; randomized controlled trial in treatment resistant epilepsy,93%
C=C1CC/C=C(\C)CC[C@@H]2[C@@H]1CC2(C)C [β-caryophyllene],Tmax,[7],> 1 h
